Values of other authors in US20230165838A1, “TREATMENT FOR ACUTE RESPIRATORY DISTRESS SYNDROME” (DIMERIX BIOSCIENCE LTD., priority 2020, published 2023).

Test system: monocytes
Conditions: MCP-1 induced; mechanism seems to require GPI-anchored proteins such as CD55, CD59 and CD16 (Yokochi, S. 2001)

In the case of `O=C(O)C[CH2][Ge](=[O])[O][Ge](=[O])[CH2]CC(=O)O` [Propagermanium, 3-[(2-Carboxyethyl-oxogermyl)oxy-oxogermyl]propanoic acid], the “in vitro chemotactic migration of monocytes by MCP-1” value is listed as “specifically inhibit”.
